According to ChEMBL document CHEMBL3046213, “Repellent, insecticidal and phytotoxic activities of isoalantolactone from Inula racemosa” (Crop Prot, 2006):

Columns and labels:
[1] = system: Sitophilus oryzae; assay: Insecticidal activity against Sitophilus oryzae (rice weevil) assessed as mortality at 600 ug/g after 15 days by food poison technique relative to acetone-treated control; type: functional
[2] = system: Sitophilus oryzae; assay: Insecticidal activity against Sitophilus oryzae (rice weevil) assessed as mortality at 3000 ug/g after 20 days by food poison technique relative to acetone-treated control; type: functional
[3] = system: Sitophilus oryzae; assay: Repellent activity against Sitophilus oryzae (rice weevil) assessed as settling responses at 75 ug/g preincubated for 12 hr prior to inoculation measured after 24 hr by food preference chamber method (reference value: 49.45 +/- 2.65 %); type: functional
[4] = system: Triticum aestivum; assay: Phytotoxicity in Triticum aestivum (wheat) assessed as root growth at 500 ug/ml pre-soaked for 30 min measured after 96 hr relative to acetone-treated control; type: organism-based; conditions: in vivo
[5] = system: Sitophilus oryzae; assay: Repellent activity against Sitophilus oryzae (rice weevil) assessed as settling responses at 125 ug/g preincubated for 12 hr prior to inoculation measured after 24 hr by food preference chamber method (reference value: 49.45 +/- 2.65 %); type: functional
[6] = system: Triticum aestivum; assay: Phytotoxicity in Triticum aestivum (wheat) assessed as shoot growth at 500 ug/ml pre-soaked for 60 min measured after 96 hr relative to acetone-treated control; type: organism-based; conditions: in vivo
[7] = system: Triticum aestivum; assay: Phytotoxicity in Triticum aestivum (wheat) assessed as root growth at 500 ug/ml pre-soaked for 30 min measured after 72 hr relative to acetone-treated control; type: organism-based; conditions: in vivo
[8] = system: Triticum aestivum; assay: Phytotoxicity in Triticum aestivum (wheat) assessed as shoot growth at 500 ug/ml pre-soaked for 60 min measured after 120 hr relative to acetone-treated control; type: organism-based; conditions: in vivo
[9] = system: Sitophilus oryzae; assay: Insecticidal activity against Sitophilus oryzae (rice weevil) assessed as mortality at 0.05 ug/g after 20 days by food poison technique relative to acetone-treated control; type: functional
[10] = system: Sitophilus oryzae; assay: Insecticidal activity against Sitophilus oryzae (rice weevil) assessed as mortality at 3000 ug/g after 10 days by food poison technique relative to acetone-treated control; type: functional
[11] = system: Triticum aestivum; assay: Phytotoxicity in Triticum aestivum (wheat) assessed as root growth at 500 ug/ml pre-soaked for 60 min measured after 96 hr relative to acetone-treated control; type: organism-based; conditions: in vivo
[12] = system: Sitophilus oryzae; assay: Insecticidal activity against Sitophilus oryzae (rice weevil) assessed as mortality at 2000 ug/g after 20 days by food poison technique relative to acetone-treated control; type: functional
[13] = system: Triticum aestivum; assay: Phytotoxicity in Triticum aestivum (wheat) assessed as shoot growth at 500 ug/ml pre-soaked for 60 min measured after 48 hr relative to acetone-treated control; type: organism-based; conditions: in vivo
[14] = system: Triticum aestivum; assay: Phytotoxicity in Triticum aestivum (wheat) assessed as germination rate at 500 ug/ml pre-soaked for 30 min measured after 96 hr relative to acetone-treated control; type: organism-based; conditions: in vivo
[15] = system: Triticum aestivum; assay: Phytotoxicity in Triticum aestivum (wheat) assessed as root growth at 500 ug/ml pre-soaked for 30 min measured after 48 hr relative to acetone-treated control; type: organism-based; conditions: in vivo
[16] = system: Sitophilus oryzae; assay: Insecticidal activity against Sitophilus oryzae (rice weevil) assessed as mortality at 2000 ug/g after 15 days by food poison technique relative to acetone-treated control; type: functional
[17] = system: Sitophilus oryzae; assay: Insecticidal activity against Sitophilus oryzae (rice weevil) assessed as mortality after 10 days by food poison technique; type: functional
[18] = system: Triticum aestivum; assay: Phytotoxicity in Triticum aestivum (wheat) assessed as germination rate at 500 ug/ml pre-soaked for 30 min measured after 48 hr relative to acetone-treated control; type: organism-based; conditions: in vivo
[19] = system: Triticum aestivum; assay: Phytotoxicity in Triticum aestivum (wheat) assessed as shoot growth at 500 ug/ml pre-soaked for 30 min measured after 48 hr relative to acetone-treated control; type: organism-based; conditions: in vivo
[20] = system: Sitophilus oryzae; assay: Insecticidal activity against Sitophilus oryzae (rice weevil) assessed as mortality at 200 ug/g after 20 days by food poison technique relative to acetone-treated control; type: functional
[21] = system: Triticum aestivum; assay: Phytotoxicity in Triticum aestivum (wheat) assessed as shoot growth at 500 ug/ml pre-soaked for 60 min measured after 72 hr relative to acetone-treated control; type: organism-based; conditions: in vivo
[22] = system: Sitophilus oryzae; assay: Insecticidal activity against Sitophilus oryzae (rice weevil) assessed as mortality at 400 ug/g after 20 days by food poison technique relative to acetone-treated control; type: functional
[23] = system: Triticum aestivum; assay: Phytotoxicity in Triticum aestivum (wheat) assessed as shoot growth at 500 ug/ml pre-soaked for 30 min measured after 120 hr relative to acetone-treated control; type: organism-based; conditions: in vivo
[24] = system: Triticum aestivum; assay: Phytotoxicity in Triticum aestivum (wheat) assessed as germination rate at 500 ug/ml pre-soaked for 60 min measured after 48 hr relative to acetone-treated control; type: organism-based; conditions: in vivo
[25] = system: Triticum aestivum; assay: Phytotoxicity in Triticum aestivum (wheat) assessed as root growth at 500 ug/ml pre-soaked for 60 min measured after 48 hr relative to acetone-treated control; type: organism-based; conditions: in vivo
[26] = system: Sitophilus oryzae; assay: Insecticidal activity against Sitophilus oryzae (rice weevil) assessed as mortality at 200 ug/g after 10 days by food poison technique relative to control; type: functional
[27] = system: Sitophilus oryzae; assay: Insecticidal activity against Sitophilus oryzae (rice weevil) assessed as mortality at 200 ug/g after 5 days by food poison technique relative to acetone-treated control; type: functional
[28] = system: Sitophilus oryzae; assay: Insecticidal activity against Sitophilus oryzae (rice weevil) assessed as mortality at 1000 ug/g after 5 days by food poison technique relative to acetone-treated control; type: functional
[29] = system: Sitophilus oryzae; assay: Insecticidal activity against Sitophilus oryzae (rice weevil) assessed as mortality at 2000 ug/g after 10 days by food poison technique relative to acetone-treated control; type: functional
[30] = system: Sitophilus oryzae; assay: Insecticidal activity against Sitophilus oryzae (rice weevil) assessed as mortality at 200 ug/g after 15 days by food poison technique relative to acetone-treated control; type: functional

C=C1C(=O)O[C@@H]2C[C@@]3(C)CCCC(=C)[C@@H]3C[C@H]12 [ISOALANTOLACTONE]
mortality [1]: 56.41% | mortality [2]: 100% | Activity [3]: 12.41% | Activity [4]: 99.1% | Activity [5]: 13.22% | Activity [6]: 47.9% | Activity [7]: 97.4% | Activity [8]: 63.5% | mortality [9]: 100% | mortality [10]: 100% | Activity [11]: 76.9% | mortality [12]: 100% | Activity [13]: 53.7% | Activity [14]: 100% | Activity [15]: 100.7% | mortality [16]: 100% | LC50 [17]: 707.21 µg/g | Activity [18]: 94% | Activity [19]: 100% | mortality [20]: 17.95% | Activity [21]: 51.7% | mortality [22]: 35.91% | Activity [23]: 100.4% | Activity [24]: 76.1% | Activity [25]: 46% | mortality [26]: 16.67% | mortality [27]: 11.9% | mortality [28]: 42.86% | mortality [29]: 100% | mortality [30]: 17.95%
